Data reported in patent US20110207751A1, “HETEROCYCLIC COMPOUNDS AND USES AS ANTICANCER AGENTS” (priority 2010, published 2011).
Counter-ions that a name gives are not always drawn.

Columns and labels:
[1] = system: MKN45 human gastric-intestinal cancer xenograft; assay: In vivo antitumor efficacy, MKN45 xenograft; parameters: species or system BALB/c immunodeficient nude mice; details: for Tumor inhibition rate %: by tumor weight
Description: (§1) To evaluate the in vivo anticancer efficacy of COMPOUND O, MKN45 human gastric-intestinal cancer xenograft models in immunodeficient nude mice was tested. All the mouse models are maintained in the Pharmacology Lab of ACEA Bio (Hangzhou) CO., Ltd. The BALB/c immunodeficient nude mice were purchased from Shanghai SLAC Laboratory Animal, certification number: SCXKA (Shanghai) 2007-0005. The mouse weight was 19±1 g. Only female mice were used in this study. The numbers of animals tested were as follow: 7 for each dose group, 7 for positive control group and 7 for negative control group.
Test Control. For negative control, each mouse was administered orally with the solvent only having the same volume and same concentration as those used in COMPOUND O test, 120 mg/kg once every other day (qod) for 18 days. […]
Preparation an Administration of Test Compounds. COMPOUND O was dissolved in 25% phospholipid (S75) and 75% polyvinylpyrrolidone (PL-PVP) then further diluted to 8 mg/ml in 0.9% NaCl aqueous solution. Different dosages of COMPOUND O between 120 mg/kg qod (once every other day) and 160 mg/kg q3d (once every 3 days) were used in the study.
Preparation of tumor cells for transplantation and determination of compound efficacy. To prepare the tumor cells for MKN45 human gastric-intestinal cancer xenograft model, the fast grown tumors were first removed from the transplanted tumor mice, the tumor tissues were dissected to 1-2 mm^3 in dimension. These micro-tumors were then subcutaneously injected into the auxiliary region (right-side) of each mouse. After the inoculated tumors grew to a certain size (60-80 mm^3) in the nude mice, the mice were randomized into different dosing groups and subjected to compound treatment. Between 2-3 weeks after the first dosing, mice were sacrificed and the transplanted tumors were removed from experimental mice. Each removed solid tumor was weighed; the tumor inhibition rate in each dosage group was calculated according to the formula:
Tumor inhibition rate %=(average weight of tumor in the negative control group−average weight of tumor in the compound treated group)/average weight of tumor in the negative control group×100 (1)
All used materials including animal food, animal cage, supporting materials and apparatus contacted by animals, were high-pressure sterilized. Nude mice were maintained in laminar flow shelves under SPF condition. After tumor transplantation, mouse weight and tumor size in each compound dosage group were dynamically monitored and plotted. The tumor size was determined by measuring the major axis (a) and minor axis (b) of the tumor, and tumor volume was calculated according to the formula: […]

[2] = system: A549 human lung cancer cells; assay: Cell Death Detection ELISA, apoptosis; type: cell-based; details: 37 nM, 24 hr, 48 hr, 72 hr
Description: To test if COMPOUND O compound induces apoptosis in cancer cells, the A549 human lung cancer cells were treated with 37 nM COMPOUND O and 37 nM paclitaxel. Cell apoptosis and death detection was measured by Cell Death Detection ELISA kit (Roche Applied Sciences), according to the assay protocol from the kit. Briefly, 5000 cells were seeded into each well of the 96-well plate. […] Cells were harvested and lysed 24 hr, 48 hr or 72 hr post drug treatment. Twenty microliters of lysate were removed and transferred to streptavidin-coated microplate and then incubated with anti-histone-biotin and anti-DNA-POD antibodies for 2 hr followed by adding 2,2′-azinobis-3-ethylbenzthiazoline-sulphonic-acid substrate for color development. The plate was measured at an absorbance of 405 and 490 nm in a Beckman Multimode DTX880 plate reader.

[3] = Body weight and animal number of carrier mice, H460 xenograft test; type: in vivo, BALB/c immunodeficient nude mice; details: for Animal No. end: 7 at beginning
Source text: as §1, with “H460” for “MKN45”, “non-small cell lung Cancer” for “gastric-intestinal cancer”, “used. The cell line and mice were” for “tested. All the mouse models are”, “between 19±2” for “19±1”, “follows:” for “follow:”
Test Control. For negative control, each mouse was administered orally with the solvent only having the same volume and same concentration as those used in COMPOUND O test, 120 mg/kg once every other day (qod) for 25 days. For positive control, an oral anticancer compound, Etoposide was administered orally at 30 mg/kg qod for 25 days.
Preparation an Administration of Test Compounds. COMPOUND O was dissolved in 25% phospholipid (S75) and 75% polyvinylpyrrolidone (PL-PVP) then further diluted to 8 mg/ml in 0.9% NaCl aqueous solution. Each mouse was administered orally with the compound solution. Different dosages of COMPOUND O (120 mg/kg qod and 160 mg/kg q3d) were used in the study.
All used materials including animal food, animal cage, supporting materials and apparatus contacted by animals, were high-pressure sterilized. Nude mice were maintained in laminar flow shelves under SPF condition. After tumor transplantation, mouse weight and tumor size in each compound dosage group were dynamically monitored and plotted. The tumor size was determined by measuring the major axis (a) and minor axis (b) of the tumor, and tumor volume was calculated according to the formula (2) in Example 1.

CCc1ccc(Nc2nc(-c3c(C)nc4sccn34)cs2)cc1 [COMPOUND O, 2-(4-ethylphenyl)amino-4-(6-methylimidazo[2,1-b]thiazol-5-yl)-thiazole monohydrobromide]
TV inhibition rate % T/C ([1]; 120 mg/kg ig × 9 qod): 44.1% | Tumor volume (mm^3) End ([1]; 120 mg/kg ig × 9 qod): 905 ± 403 mm^3 | Tumor volume (mm^3) Start ([1]; 120 mg/kg ig × 9 qod): 69.58 ± 11 mm^3 | Tumor weight (g) x ± SD ([1]; 120 mg/kg ig × 9 qod): 0.835 ± 0.41 g | Tumor inhibition rate % ([1]; 120 mg/kg ig × 9 qod): 58.0% | TV inhibition rate % T/C ([1]; 160 mg/kg ig × 6 q3d): 45.3% | Tumor volume (mm^3) End ([1]; 160 mg/kg ig × 6 q3d): 904 ± 347 mm^3 | Tumor volume (mm^3) Start ([1]; 160 mg/kg ig × 6 q3d): 67.75 ± 25 mm^3 | Tumor weight (g) x ± SD ([1]; 160 mg/kg ig × 6 q3d): 0.881 ± 0.467 g | Tumor inhibition rate % ([1]; 160 mg/kg ig × 6 q3d): 55.7% | apoptotic signal [2]: strong apoptotic signals (starting from 48 hr post drug treatment) | Animal weight (g) Beginning ([3]; 120 mg/kg ig × 11 qod): 20.04 g | Animal weight (g) end ([3]; 120 mg/kg ig × 11 qod): 17.33 g | Body weight of mice (g) 1 day ([3]; 120 mg/kg ig × 11 qod): 20.04 ± 0.51 g | Body weight of mice (g) 3 day ([3]; 120 mg/kg ig × 11 qod): 19.80 ± 1.18 g | Body weight of mice (g) 7 day ([3]; 120 mg/kg ig × 11 qod): 18.86 ± 0.70 g | Body weight of mice (g) 10 day ([3]; 120 mg/kg ig × 11 qod): 18.20 ± 0.68 g | Body weight of mice (g) 14 day ([3]; 120 mg/kg ig × 11 qod): 18.11 ± 0.49 g | Body weight of mice (g) 17 day ([3]; 120 mg/kg ig × 11 qod): 17.43 ± 0.51 g | Body weight of mice (g) 22 day ([3]; 120 mg/kg ig × 11 qod): 17.24 ± 0.72 g | Body weight of mice (g) 24 day ([3]; 120 mg/kg ig × 11 qod): 17.56 ± 1.21 g | Body weight of mice (g) 25 day ([3]; 120 mg/kg ig × 11 qod): 17.33 ± 1.23 g | Animal No. end ([3]; 120 mg/kg ig × 11 qod): 7/7 | Animal weight (g) Beginning ([3]; 160 mg/kg ig × 9 q3d): 20.00 g | Animal weight (g) end ([3]; 160 mg/kg ig × 9 q3d): 16.24 g | Body weight of mice (g) 1 day ([3]; 160 mg/kg ig × 9 q3d): 20.00 ± 0.48 g | Body weight of mice (g) 3 day ([3]; 160 mg/kg ig × 9 q3d): 20.54 ± 0.53 g | Body weight of mice (g) 7 day ([3]; 160 mg/kg ig × 9 q3d): 18.64 ± 0.61 g | Body weight of mice (g) 10 day ([3]; 160 mg/kg ig × 9 q3d): 17.89 ± 0.39 g | Body weight of mice (g) 14 day ([3]; 160 mg/kg ig × 9 q3d): 17.83 ± 0.57 g | Body weight of mice (g) 17 day ([3]; 160 mg/kg ig × 9 q3d): 18.24 ± 0.46 g | Body weight of mice (g) 22 day ([3]; 160 mg/kg ig × 9 q3d): 16.91 ± 0.97 g | Body weight of mice (g) 24 day ([3]; 160 mg/kg ig × 9 q3d): 16.53 ± 1.29 g | Body weight of mice (g) 25 day ([3]; 160 mg/kg ig × 9 q3d): 16.24 ± 1.55 g | Animal No. end ([3]; 160 mg/kg ig × 9 q3d): 7/7

COc1cc([C@@H]2c3cc4c(cc3[C@@H](O[C@@H]3O[C@@H]5CO[C@@H](C)O[C@H]5[C@H](O)[C@H]3O)[C@H]3COC(=O)[C@H]23)OCO4)cc(OC)c1O [Etoposide, reference compound]
TV inhibition rate % T/C ([1]; 50 mg/kg ig × 6 q3d): 56.9% | Tumor volume (mm^3) End ([1]; 50 mg/kg ig × 6 q3d): 1164 ± 483 mm^3 | Tumor volume (mm^3) Start ([1]; 50 mg/kg ig × 6 q3d): 69.46 ± 16 mm^3 | Tumor weight (g) x ± SD ([1]; 50 mg/kg ig × 6 q3d): 1.024 ± 0.345 g | Tumor inhibition rate % ([1]; 50 mg/kg ig × 6 q3d): 48.4% | Animal weight (g) Beginning ([3]; 30 mg/kg ig × 13 qod): 19.97 g | Animal weight (g) end ([3]; 30 mg/kg ig × 13 qod): 17.13 g | Body weight of mice (g) 1 day ([3]; 30 mg/kg ig × 13 qod): 19.97 ± 0.88 g | Body weight of mice (g) 3 day ([3]; 30 mg/kg ig × 13 qod): 19.66 ± 0.75 g | Body weight of mice (g) 7 day ([3]; 30 mg/kg ig × 13 qod): 19.70 ± 1.38 g | Body weight of mice (g) 10 day ([3]; 30 mg/kg ig × 13 qod): 19.66 ± 1.10 g | Body weight of mice (g) 14 day ([3]; 30 mg/kg ig × 13 qod): 18.86 ± 1.07 g | Body weight of mice (g) 17 day ([3]; 30 mg/kg ig × 13 qod): 18.79 ± 1.17 g | Body weight of mice (g) 22 day ([3]; 30 mg/kg ig × 13 qod): 17.86 ± 1.35 g | Body weight of mice (g) 24 day ([3]; 30 mg/kg ig × 13 qod): 17.56 ± 1.44 g | Body weight of mice (g) 25 day ([3]; 30 mg/kg ig × 13 qod): 17.13 ± 1.14 g | Animal No. end ([3]; 30 mg/kg ig × 13 qod): 7/7

CC(=O)O[C@H]1C(=O)[C@@]2(C)[C@H]([C@H](OC(=O)c3ccccc3)[C@]3(O)C[C@H](OC(=O)[C@H](O)[C@@H](NC(=O)c4ccccc4)c4ccccc4)C(C)=C1C3(C)C)[C@]1(OC(C)=O)CO[C@@H]1C[C@@H]2O [paclitaxel]
apoptotic signal [2]: strong apoptotic signals (starting from 48 hr post drug treatment)
